Measurements from patent EP0076669A1, “Novel 3-phenyl-1-indanamines, pharmaceutical compositions and methods of preparation” (KEFALAS A/S, priority 1981, dated 1983).

Assays:
[1] = test system: tetrabenazine induced ptosis; assay: Tetrabenazine ptosis antagonism; type: in vivo; settings: Mus musculus, ip, 0.5 h; i.p., mice; tetrabenazine 40 mg/kg i.p. 30 min after test substance
Experimental: For insoluble substances the doses 0, 1/8, 1/32 and 1/128 of "i.^p. LD50" are used. 3 mice are used for each dose level. Thirty minutes after administration of test substance, tetrabenazine, 40 mg/kg, is injected i.p. Ptosis is evaluated 30 minutes after administration of tetrabenazine, the following rating scale being used: 0 = normal eyes, 1=1/4 closed eyes, 2 = 1/2 closed eyes, 3 = 3/4 closed eyes and 4 = completely closed eyes. Ptosis is evaluated 30 seconds after tilting the cage 3 times. The tilting is carried out in such a way that the animals slide along the floor of the cage.
The results are recorded as % inhibition of ptotic score calculated on the basis of the score of the control group. If ptotic score for the control group is < 10 the test is rejected and another is performed. The registration can also be done as an on line procedure.

potentiation of 5-HTP = assay: 5-HTP potentiation (5-HTP syndrome); type: in vivo; settings: Mus musculus, ip, 0.5 h; i.p., mice; 5-HTP 100 mg/kg i.v. 30 min after test substance; read-out: 5-HTP potentation,ED50
Experimental: The test substance is given i.p. or p.o. in the doses 10, 10, 2.5, 0.63 and 0 mg/kg. Three mice are used for each dose level. One of the groups on the highest dose is used as control of the compounds own effect. […] Thirty minutes after administration of test substance, 5-HTP, 100 mg/kg i.v. is given (injection time 5-10 sec.). After this 5-HTP dose the animals remain unaffected. If the animals have been pretreated with a substance, which inhibits the re-uptake of 5-HT, a 5-HTP syndrome will occur. This is characterized by the following symptoms: 1) excitation, 2) tremor, and 3) abduction of the hind limbs.
After the administration of 5-HTP the animals are observed for 15 minutes and each animal is given one point for each symptom present. Thus, the maximal score for a group consisting of 3 mice is 9.
The results are stated as fractions: 0/9, 1/9, 2/9 ..... 8/9, 9/9, where 0, 1, 2 ..... 8, 9 are the number of points per group after the dose in question.

[2] = target: T1, ^3H-DA uptake in striatal synaptosomes (Rattus norvegicus, UniProt P23977); assay: biochemical; type: biochemical, Rats; settings: rat striatal synaptosomes, 3H-DA 12.5 nM; read-out: Uptake Inhibition IC50 DA
T1 construct: the two corpura striata are dissected out and gently homogenized; from tissue; host or cells: rat corpus striatum, synaptosomal P2 fraction
T1 sequence (P23977 whole entry): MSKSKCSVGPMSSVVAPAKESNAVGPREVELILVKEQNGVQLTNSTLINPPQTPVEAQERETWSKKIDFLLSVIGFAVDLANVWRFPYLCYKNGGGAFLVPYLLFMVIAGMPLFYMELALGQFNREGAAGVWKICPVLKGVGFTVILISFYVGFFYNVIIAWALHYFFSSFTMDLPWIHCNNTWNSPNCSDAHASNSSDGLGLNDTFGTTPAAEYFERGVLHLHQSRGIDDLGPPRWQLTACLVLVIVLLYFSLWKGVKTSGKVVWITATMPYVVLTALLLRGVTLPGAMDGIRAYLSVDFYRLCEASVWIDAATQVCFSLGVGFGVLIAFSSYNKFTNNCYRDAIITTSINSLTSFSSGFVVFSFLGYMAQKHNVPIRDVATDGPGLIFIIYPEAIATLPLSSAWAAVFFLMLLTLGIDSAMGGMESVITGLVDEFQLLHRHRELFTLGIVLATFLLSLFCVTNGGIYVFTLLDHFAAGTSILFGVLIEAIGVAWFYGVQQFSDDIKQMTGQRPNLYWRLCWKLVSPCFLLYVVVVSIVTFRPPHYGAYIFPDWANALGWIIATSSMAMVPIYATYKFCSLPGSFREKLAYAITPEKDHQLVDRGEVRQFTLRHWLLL
Experimental: ^3H-DA uptake in striatal synaptosomes in vitro.
(§1) 0.32 M sucrose containing 1 mM Nialamide
Krebs-Ringer-phosphate buffer, pH 7.4
3,4-dihydroxyphenylethylamine [ethyl-1-^3H(N)] = ^3H-DA, spc. act. app. 15 Ci/mmol, New England Nuclear
(§2) Thomas Tissue Grinder, clearance 0.004-0.006 inch.
Rats are killed by a blow to their head, exsanguinated and their brains removed. The brain is placed on a precooled glassplate, and the two corpura striata are dissected out and gently homogenized in 40 volumes of ice cold 0.32 M sucrose containing 1 mM of nialamide using a hand homogenizer with teflon pestle. The P2-fraction (synaptosomal fraction) is obtained by centrifugation (600 g, 10 min., 25000 g, 55 min. 4 °C) and suspended in 40 volumes of a modified Krebs-Ringer-phosphate buffer, pH 7.4. To 200µl of the synaptosomal fraction on ice are added 3700 µl modified Krebs-Ringer-phosphate buffer - containing test compounds. After a preincubation at 37°C for 5 min. […] The incubation is terminated by filtering the samples under vacuum through Millipore filters with a wash of 5 ml buffer containing 10 µM of unlabelled DA. After solubilizing the filters in 1 ml of cellosolve the radioactivity is determined by liquid scintillation counting after the addition of 10 ml of Insta-Gel. The unspecific binding of ^3H-DA is determined by incubating control samples on ice instead of at 37 °C.
All experiments are performed in ttriplicate.
The mean of all control samples and ice samples are calculated.

[3] = target: T2, ^3H-5-HT uptake in synaptosomes (Rattus norvegicus, UniProt P31652); assay: Inhibition of 3H-5-HT uptake in synaptosomes in vitro; type: biochemical, Rats
T2 construct: Rest of the brain is gently homogenized (glass teflon homogenizer); from tissue; host or cells: rat brain without cerebellum, pons and medulla oblongata, synaptosomal P2 fraction
T2 sequence (P31652 whole entry): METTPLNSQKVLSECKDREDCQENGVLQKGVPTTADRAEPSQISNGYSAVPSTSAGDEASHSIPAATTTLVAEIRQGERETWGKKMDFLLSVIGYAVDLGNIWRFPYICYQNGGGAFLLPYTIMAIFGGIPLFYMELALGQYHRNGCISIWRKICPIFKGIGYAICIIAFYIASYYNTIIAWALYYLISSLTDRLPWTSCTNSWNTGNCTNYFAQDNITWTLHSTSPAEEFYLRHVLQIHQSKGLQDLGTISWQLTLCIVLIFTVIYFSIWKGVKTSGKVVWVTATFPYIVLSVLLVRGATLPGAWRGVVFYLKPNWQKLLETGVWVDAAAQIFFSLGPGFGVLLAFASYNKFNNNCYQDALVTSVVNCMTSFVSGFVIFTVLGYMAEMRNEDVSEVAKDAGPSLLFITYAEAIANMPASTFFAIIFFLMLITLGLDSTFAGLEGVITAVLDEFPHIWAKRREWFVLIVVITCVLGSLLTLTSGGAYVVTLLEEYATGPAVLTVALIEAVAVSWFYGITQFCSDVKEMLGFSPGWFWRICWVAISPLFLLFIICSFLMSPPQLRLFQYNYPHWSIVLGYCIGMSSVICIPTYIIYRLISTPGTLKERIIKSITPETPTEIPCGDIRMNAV
Experimental: Inhibition of ^3H-5-HT uptake in synaptosomes in vitro.
as §1
Krebs-Ringer-Phosphate buffer, pH 7.4
Millipore filters (HAWPO 2500, 0.45 µ)
5-hydroxy [G-^3H] tryptamine creatinine sulphate = ^3H-5-HT, spc. act. app. 10 Ci/mmol, The Radiochemical Centre, Amersham.
as §2
Rats are killed by a blow on the head and exsanguinated. The brain is quickly removed, rinsed for blood and placed on a cold plate. The cerebellum, pons and medulla oblongata are removed. Rest of the brain is gently homogenized (glass teflon homogenizer) in 40 volumes of ice cold 0.32 M of sucrose containing 1 mM of nialamide. The P2 fraction (synaptosomal fraction) is obtained by centrifugation (600 g, 10 min. and 25000 g, 55 min., 4°C) and suspended in 40 volumes of a modified Krebs-Ringer-Phosphate buffer, pH 7.4.
To 200µl of the synaptosomal suspension on ice are added 3700 µl modified Krebs-Ringer-phosphate buffer, pH 7.4, containing test substances. After preincubation at 37°C for 5 min., 100 µl of ^3H-5-HT (final concentration in the samples = 10 nM) are added and the samples are incubated for 10 min. at 37 °C. The incubation is terminated by filtering the samples under vacuum through Millipore filters with a wash of 5 ml buffer containing 10 µM of unlabelled 5-HT. After solubilizing the filters in I ml of cellosolve, 10 ml of Instagel are added, and the radioactivity is determined by liquid and scintillation counting. The unspecific binding and passive transport of ^3H-5-HT is determined by incubating control samples on ice instead of at 37°C. All experiments are performed in triplicate. The mean of all control samples are calculated.
The IC50- values are determined as the concentrations, at which the uptake are 50 per cent of the uptake in control sample -uptake in ice samples.

`CN(C)C1CC(O)(c2ccc(Cl)c(Cl)c2)c2ccccc21` (stereo not shown) [Lu 19-034, N,N-Dimethyl-3-(3,4-dichlorophenyl)-3-hydroxy-1-indanamine] showed an ED50 [1] of 9 µmol/kg, an ED50 (potentiation of 5-HTP) of 11 µmol/kg and an IC50 [2] of 130 nM. For the same compound, the IC50 [3] was 1.7 nM.
